The source made the active and inactive calls. No rule for the calls is given here.

Usually IC50 stands for the midpoint of a concentration-inhibition curve.

The subject of this assay is Leishmania donovani growth inhibition. Briefly: antileishmanial activity against L. donovani parasites (AID 1159560).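 Also: parasites exposed to compound for 72 h before the viability read.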
On to `Cc1nn(-c2nc(N)nc(-c3ccccn3)n2)c(N)c1-c1ccccc1`, for which the IC50 was 5 µM.
As for `CN(C)Cc1ccc(-c2ccc(S(=O)(=O)NCC3CCCO3)c(F)c2)cc1` (configuration not stated), the figure is > 63 µM (inactive); as for `N#Cc1ccccc1S(=O)(=O)N1CCN(C(=O)CNC(=O)c2ccc3c(c2)OCO3)CC1`, 0.63 µM; as for `CCC(=O)Nc1ccccc1C(=O)Nc1ccccn1`, > 50 µM (inactive).
As for `O=[N+]([O-])c1cccc(Nc2cncc(-c3ccccc3CO)c2)c1`, the figure is 40 µM.
For `CCCN(Cc1ccc(OC)c(OC)c1)Cc1cc(=O)c2c(C)cc(C)cc2[nH]1`, the IC50 is 20 µM.
On to `CC(C)S(=O)(=O)c1ccc(-c2cnc(N)c3cc(-c4ccnc(N)n4)ccc23)cc1`, for which the IC50 is 2 µM.
For `O=c1oc2ccccc2n1C1CCN(Cc2ccccc2-c2cccnc2)CC1` the value was > 50 µM (inactive); for `Cc1ccc2onc(Nc3ccnc(Nc4cccc(S(C)(=O)=O)c4)n3)c2c1`, 5 µM.
For `O=C(NCCc1ccccc1Cl)c1cccn1-c1cccnc1`, the IC50 is 6.3 µM.
As for `OC[C@@H](Nc1nccc(-c2c(-c3ccc(F)cc3)ncn2C2CCNCC2)n1)c1ccccc1`, the figure is > 50 µM (inactive).
As for `O=C(NNC(=O)c1ccccn1)c1ccc(-c2ccccc2)cc1`, the figure is 3.2 µM; as for `COc1ccc(-c2cc(C)no2)cc1S(=O)(=O)Nc1ccc(C)c(C)c1`, 7.9 µM; as for `Cn1nc(-c2ccc(NC(=O)Cc3ccccc3Cl)cc2)c2c(N)ncnc21`, > 50 µM (inactive).
For `Cc1nc2c(-c3ncn[nH]3)cc(NC(=O)Cc3ccccc3)cn2c1C` the value was 0.79 µM.
`CC(CCc1ccccc1)NC(=O)CN(Cc1ccccn1)Cc1ccccn1` (configuration not stated): the IC50 is 7.9 µM.
As for `Cc1cc(C)n(-c2nc(NC(C)C)nc(NC(C)(C)C)n2)n1`, the figure is 3.2 µM.
Take `NC(=O)c1cc(NC(=O)c2ccccc2COc2ccccc2)ccc1Cl`: the IC50 is 7.9 µM.
For `O=C(Nc1nc(-c2ccccn2)cs1)C1CCc2ccccc2C1` (configuration not stated) the value was 5 µM; for `Cc1nc2c(-c3n[nH]c(-c4ccccc4N)n3)cccn2c1C`, 6.3 µM; for `Cc1cc(NC(=O)C2CC2)ccc1OC1CCN(Cc2ccco2)CC1`, > 50 µM (inactive).
With `Cc1[nH]nc2c1C(c1ccc(OCc3ccccc3F)cc1)SCC(=O)N2` (configuration not stated), the half-maximal inhibitory concentration (IC50) is 40 µM.
For `O=c1[nH]c(C=Cc2cccc(OCCOc3ccccc3)c2)nc(O)c1[N+](=O)[O-]` the value was > 50 µM (inactive); for `Cc1nn(-c2nc3ccccc3[nH]2)c2c1C(c1ccc(O)cc1)CC(=O)N2` (configuration not stated), 0.79 µM; for `CC(C)COC(=O)Nc1ccc(N2CCC(CNS(=O)(=O)c3ccccc3)CC2)c(F)c1`, 4 µM.
Consider `CN(C(=O)Nc1ccc2c(c1)CCN(C1CCC1)CC2)c1ccc(C#N)cc1`, for which the IC50 is 40 µM.
As for `Cc1cc2nc(N3CC[C@H]3C(N)=O)nc(Nc3cc(C4CC4)[nH]n3)c2s1`, the figure is 0.79 µM; as for `OCC1CCCCN1c1cc(-c2ccccn2)nc(Nc2ccccc2)n1` (configuration not stated), 3.2 µM; as for `O=C(c1ccc(Cl)cc1)c1ccc(OC(=O)N2CCOCC2)cc1`, 6.3 µM.
As for `COc1ccc(C(=O)[C@H]2C[C@@H]2CN(Cc2ccccn2)Cc2ccccn2)cc1`, the figure is 7.9 µM; as for `CCOc1ccc(N(C)S(=O)(=O)c2ccc3[nH]cc(C(=O)NC4CCCC4)c(=O)c3c2)cc1`, > 50 µM (inactive).
As for `Cc1cc2ncn(-c3ccc([N+](=O)[O-])cc3C#N)c2cc1C`, the figure is > 50 µM (inactive); as for `COc1cccc(C(=O)[C@H]2C[C@@H]2CN(Cc2ccccn2)Cc2ccccn2)c1`, 7.9 µM; as for `Cc1ccccc1OCC(=O)N1CCCN(c2cccnn2)CC1`, 13 µM.
Take `CNc1cncc(C2CCCN2C(=O)Cc2coc3cc(C)ccc23)n1` (configuration not stated): the IC50 is 3.2 µM.
For the compound `CCC(CC)C(=O)Nc1cccc(C(=O)Nc2nnc(C3CCCCC3)s2)c1`, the IC50 was > 50 µM (inactive).
As for `Cc1cc(Br)cc(C(=O)c2c(C(C)C)c(=O)[nH]c(=O)n2Cc2ccnc(N)c2)c1`, the IC50 was > 50 µM (inactive).
For `CCc1nn(-c2ncc(F)c(NC(C)C)n2)c(N)c1C1CCCCC1`, the IC50 was 3.2 µM.
As for `Cc1occc1C(=O)Nc1ccccc1C(=O)Nc1nccs1`, the figure is > 50 µM (inactive).
For the compound `COc1ccc(C(=O)Nc2c(C)nn(COc3cccc(C(F)(F)F)c3)c2C)cc1`, the IC50 was > 50 µM (inactive).
`CC(C)c1sc(Cl)nc1C(=O)NCCc1nc(C(=O)Nc2ccc3c(c2)OCO3)cs1`: the IC50 was 4 µM.
In the case of `Cc1ccc(Nc2nc(C3CCCN3Cc3ccn[nH]3)cs2)nc1` (configuration not stated), the IC50 is 13 µM.
For `COc1ccc(C2CC(c3ccccc3Cl)=NN2C(=O)CNC(=O)C2CCC2)cc1` (configuration not stated) the value was > 50 µM (inactive); for `Cc1sc(C)c(C(F)(F)F)c1CNCCCNc1cc(=O)c2ccccc2[nH]1`, > 50 µM (inactive); for `CC(=O)Nc1nc(-c2cc(C)ccc2C)c(C)s1`, > 50 µM (inactive).
Consider `CN(CCOc1ccc(Cl)cc1)Cc1nc(N)nc(N(C)C)n1`, for which the IC50 was 16 µM.
Consider `Cc1ccccc1CNc1cc(C2CC2)nc(-c2nccn2C)n1`, for which the IC50 is 1.6 µM.
For `COc1ccc(C2CC(c3ccccc3Cl)=NN2C(=O)CNC(=O)C2CCCC2)cc1` (configuration not stated) the value was > 50 µM (inactive); for `CC(C)Oc1cccc(N2CCC(C(=O)N3CCCN(C(C)C)CC3)CC2)c1`, > 50 µM (inactive).
For `c1ccc(Nc2nc3ccccc3[nH]2)nc1` the value was 25 µM.
`COc1cccc(Nc2cc(C)nc(-c3ccccn3)n2)c1`: the IC50 is 4 µM.
For `COc1ccc(S(=O)(=O)Nc2ccc(CN3CCN(C(=O)c4cccc(C#N)c4)CC3)cc2)cc1` the value was 32 µM; for `O=C(NCc1ccc(Cl)cc1)C1CN(C(=O)c2ccc(F)cc2)CCS1` (configuration not stated), > 50 µM (inactive); for `Cc1nc(N2CCC(C(=O)N3CCC(O)(c4cccnc4)CC3)CC2)nc2ccc(C(C)C)cc12`, > 50 µM (inactive).
For `COc1ncc(-c2ccc3nccc(-c4ccncc4)c3c2)cc1NS(C)(=O)=O` the value was 3.2 µM; for `CC(C)(C)c1cc(NC2CC2)nc(-c2ccccn2)n1`, 1.6 µM; for `FC(F)(F)c1cc(C2CCCN(Cc3c[nH]c4ccccc34)C2)nc2ncnn12` (configuration not stated), > 50 µM (inactive).
With `Cc1nn(-c2ccccc2)nc1CNC(=O)CN(Cc1ccccn1)Cc1ccccn1`, the IC50 is 7.9 µM.
For `CC(=O)Nc1ccc(-c2csc(NC(=O)c3ccc([N+](=O)[O-])s3)n2)cc1`, the IC50 was 0.4 µM.
For `CN(C)Cc1ccc(N2CCC(NS(=O)(=O)c3ccc(Cl)cc3)CC2)cc1` the value was 40 µM; for `COc1ccc(CNc2nsc3ccccc23)cc1OC`, 3.2 µM.
Turning to `CC(C)(C)Nc1nc(-c2ccccn2)nc2ccccc12`, the half-maximal inhibitory concentration (IC50) is 6.3 µM.
For `COc1ccc(C(=O)N2CCC(Nc3cccnc3)C2)c(OC)n1` (configuration not stated) the value was 16 µM; for `COCc1cc(Nc2ccccc2)nc(-c2ccccn2)n1`, 7.9 µM; for `NC(N)=Nc1nc(-c2ccc(NC(N)=NCCN3CCCC3)cc2)cs1`, > 50 µM (inactive).
For `COc1ccc2nccc([C@H](O)CN3CC[C@H](NC(=O)c4ccc(Br)cc4)[C@@H](O)C3)c2n1` the value was 3.2 µM; for `O=C(c1cccc(Nc2ncc(-c3ccc4c(c3)OCO4)cn2)c1)N1CCSC1`, 1.3 µM.
On to `CC1CCCCN1C(=O)NCCc1coc(-c2ccc(F)cc2)n1` (configuration not stated), for which the IC50 is > 50 µM (inactive).
Consider `O=C(O)[C@H]1C[C@@H]1c1ccc(-c2ccc(CN(CCc3ccccn3)C(=O)C3CCC3)cc2)cc1`, for which the IC50 was 25 µM.
For `Fc1ccc(Nc2nc(-c3ccccn3)cs2)cc1` the value was 20 µM.
For `COc1ccc(-c2nc3ncccc3o2)cc1NC(=O)c1cccs1` the value was 5 µM; for `Cc1nc2c(-c3nc(-c4ccc(N)cc4)n[nH]3)cccn2c1C`, 3.2 µM.
For `Cn1cc(CN2CCN(c3ccc4c(c3)CCN(C(=O)[C@H]3C[C@@H]3c3ccccc3)CC4)CC2)cn1` the value was 0.63 µM.
Consider `COc1ccc(-c2ccc3nnc(-c4ccc(O)c(OC)c4)n3c2)cn1`, for which the IC50 was 4 µM.
As for `CNC(=O)C1Cc2ccccc2N1C(=O)Cc1ccc(OC)cc1` (configuration not stated), the figure is > 50 µM (inactive).
For `COc1ccc(C(C)(C)C)cc1S(=O)(=O)n1ccnc1` the value was 40 µM.
As for `CC1CN(S(=O)(=O)c2ccc(NC(=O)c3cc(C4CC4)nc4c3cnn4C(C)C)cc2)CC(C)O1` (configuration not stated), the figure is 20 µM; as for `O=C(Nc1ccc(-c2nc3ccccc3c(=O)[nH]2)cc1)c1cccs1`, > 50 µM (inactive).
Consider `CN1CCCN(C(=O)c2ccc(N3CCCC3)cc2Cl)CC1`, for which the IC50 was 40 µM.
Regarding `Cc1nn(-c2nc3ccccc3s2)c2c1C(c1ccc(OCC(N)=O)cc1)SCC(=O)N2` (configuration not stated), the IC50 is > 50 µM (inactive).
As for `Cc1ccc2nc(N(Cc3cccnc3)C(=O)CCc3ccccc3)sc2c1`, the figure is 25 µM.
As for `Cc1nn2c(NCCCO)c3c(nc2c1-c1cccs1)CCC3`, the figure is 2 µM.
As for `Cc1ccccc1NS(=O)(=O)c1ccc2[nH]cc(C(=O)NC3CCCC3)c(=O)c2c1`, the figure is > 50 µM (inactive); as for `Cc1c(Nc2cc(C3CC3)[nH]n2)ccc(C#N)c1Cl`, 20 µM; as for `C[C@@H](Oc1cc(-n2cnc3ccc(O[C@H]4CCNC4)cc32)sc1C(N)=O)c1ccccc1Cl`, > 50 µM (inactive).
`CCC(=O)N1N=C(c2ccc3c(c2)CCCC3)Sc2c1ncn2C(=O)CC`: the half-inhibitory concentration (IC50) is 25 µM.
For `COc1ccc2ncc(F)c(NC(=O)C3(O)CCC(NCc4ccc5c(c4)OCCO5)CC3)c2n1` (configuration not stated) the value was 40 µM; for `CN(C)c1ccc(N)cc1CN(CC1CCCO1)S(C)(=O)=O` (configuration not stated), 4 µM; for `O=C(NCC1CCCCN1C(=O)c1cccc2ccccc12)c1ccccc1` (configuration not stated), > 50 µM (inactive).
For `O=c1ccn(-c2ccc([N+](=O)[O-])cc2Cl)c2ccc(F)cc12` the value was > 50 µM (inactive); for `O=C(CC1(O)C(=O)N(Cc2cccs2)c2ccc(Br)cc21)c1cccnc1` (configuration not stated), > 50 µM (inactive); for `CNS(=O)(=O)c1ccccc1Nc1nc(Nc2ccnn2C)ncc1Cl`, 0.2 µM.

Values taken from PubChem BioAssay AID1159560 (GlaxoSmithKline (GSK), 2015).
